Values of other authors, collected in US20120195875A1, “DETECTION OF IMMUNE MODULATION RESULTING FROM REDUCED PROTEIN PHOSPHATASE 2A ACTIVITY” (CEDARS-SINAI MEDICAL CENTER, priority 2011, published 2012).

Legend:
[1] = tested on: macrophages
[2] = tested on: murine peritoneal macrophages

Q: What does the source list for `COC[C@@H]([C@H](O)[C@H](O)C(=O)NCC[C@H](C)c1nc(/C=C/C[C@@H]2O[C@]3(C[C@@H](O)[C@@H]2C)O[C@H]([C@H](C[C@H](O)[C@H](C)[C@H](O)[C@H](C)/C=C(C)/C(C)=C/C=C/C(C)=C\C#N)OC)[C@H](OP(=O)(O)O)C3(C)C)co1)N(C)C` [calyculin A]?
A: LPS-induced TNF-α, IL-1β, IFN-β, IP-10, IRF-1, and TNFR-2 release [1]: inhibit; LPS-induced macrophage responses [1]: inhibits

Q: With `C=C1[C@@H](O)[C@@H]2O[C@]3(CC[C@H](/C=C/[C@@H](C)[C@@H]4CC(C)=C[C@@]5(O[C@H](C[C@@](C)(O)C(=O)O)CC[C@H]5O)O4)O3)CC[C@H]2O[C@@H]1[C@@H](O)C[C@H](C)[C@H]1O[C@@]2(CCCCO2)CC[C@H]1C` [okadaic acid] as the molecule, how does the LPS tolerance ([2]; 1 h before the first or 16 h before the second LPS stimulation) read?
A: reversed LPS tolerance

Q: And the p38 phosphorylation ([2]; in response to primary LPS stimulation)?
A: inhibition

Q: And the “phosphorylation of ERK-1/ERK-2, JNK/SAPK and p38/SAPK-2” value ([2]; in response to second LPS stimulation)?
A: restored and prolonged
